The subject of test [1] is mouse bone marrow-derived mast cells. As to the kind of experiment: Histamine-induced mast cell chemotaxis in vitro (transwell). It is filed as cell-based. The conditions noted are these: for inhibition at 1 µM / inhibition at 10 µM: Mus musculus, Mast cell. How it is done: Mast cells were differentiated from bone marrow derived from BALB/c or C57bl/6j mice. Mice were sacrificed by asphyxiation under 95% CO2 and femurs were removed. Bone marrow was aseptically isolated from the femurs. The cells (5×10^5/mL) were cultured at 37° C. with 5% CO2 in culture medium consisting of RPMI with 10% FCS, 0.1 mM non-essential amino acids, 50 μg/mL penicillin/streptomycin and 20% conditioned WEHI-3 medium. Conditioned WEHI-3 medium was prepared from WEHI-3 cells (ATCC), which were cultured in Iscoves Dulbeccos medium with 10% FCS, 4 mM L-glutamine, 1.5 g/L sodium carbonate, 0.05 μM beta-mercaptoethanol and 50 μg/mL penicillin/streptomycin. The filtered supernatant was used as the conditioned WEHI-3 medium. After 16 h in culture, the bone marrow cells were transferred to a new flask. The medium was refreshed once per week. After four weeks, the cells were tested by flow cytometry for IgE receptor and CD117 (c-kit) expression. Mast cells were incubated with anti-DNP IgE (ICN Pharmaceuticals, Costa Mesa, Calif.) or vehicle for 30 min, followed by FITC labeled anti-IgE (Pharmingen) or FITC labeled CD117 (Pharmingen) for 30 min on ice. The cultured mast cells consisted of a homogeneous population which was >99% IgE receptor positive and >99% CD117 positive. Mast cells of four to eight weeks culture time were used for experiments.
Transwells (Costar, Cambridge, Mass.) of a pore size of […] were coated with 100 μL of 100 ng/mL human fibronectin (Sigma) for 2 h at room temperature. […] Mast cells (2×10^5/well) were added to the top chamber. The plates were incubated for 3 h at 37° C. Transwells were removed and the number of cells in the bottom chamber was counted for 60 sec using a flow cytometer.

Test [2] has as its target T1, human histamine H4 receptor (Homo sapiens, UniProt Q9H3N8). As to the kind of experiment: biochemical.
In test [3] the target is T1, human histamine H4 receptor.
The subject of test [4] is ovalbumin-sensitized mice. As to the kind of experiment: Ovalbumin-induced lung inflammation model, cell counts in BAL fluid. In kind it is in vivo, mouse. The settings on record: for maximum reduction in the number of eosinophils: BAL fluid.
Test [5] concerns ovalbumin-sensitized mice. As to the kind of experiment: Airway hyper-responsiveness to methacholine in ovalbumin-sensitized mice (whole body plethysmography). In kind it is in vivo, mouse. The conditions noted are these: any of the first three doses, FIG. 7. The protocol: Mice (n=8 per group) were sensitized by intraperitoneal injection of ovalbumin/alum on Days 0 and 14. On each of Days 21 through 24, mice were pretreated for 15 min with vehicle or with (5-chloro-1H-benzoimidazol-2-yl)-(4-methyl-piperazin-1-yl)-methanone prior to a 20 min challenge with PBS or ovalbumin.
In one experiment, (5-chloro-1H-benzoimidazol-2-yl)-(4-methyl-piperazin-1-yl)-methanone was administered p.o. at 5, 20, or 50 mg/kg. In a second experiment, (5-chloro-1H-benzoimidazol-2-yl)-(4-methyl-piperazin-1-yl)-methanone was administered p.o. at 0.5, 2, or 5 mg/kg.
Airway hyper-responsiveness in ovalbumin-sensitized animals was monitored in conscious mice by whole body plethysmography (Buxco). Mice (n=8 per group) were treated as described above for the cell measurements.

Test [6] concerns mast cells in the mouse trachea. As to the kind of experiment: Histamine-induced accumulation of mast cells in the mouse trachea in vivo.
A further test relates to human eosinophils. Nature of the test: Histamine-induced eosinophil shape change (GAFS). It is filed as cell-based. The settings on record: for IC50: Eosinophil, human eosinophils, read-out: IC50 for inhibition of histamine-induced eosinophil shape change; for effect on histamine-induced eosinophil shape change / Fold Change: antagonist 10 μM; for Fold Change: eosinophil shape change. How it is done: Human granulocytes were isolated from human blood by a Ficoll gradient. The red blood cells were lysed with 5-10× Qiagen lysis buffer at room temperature for 5-7 min. Granulocytes were harvested and washed once with FACS buffer. The cells were resuspended at a density of 2×10^6 cells/mL in reaction buffer. […] Ten minutes later, the cells were transferred to ice and fixed with 250 μL of ice-cold fixative buffer (2% formaldehyde) for 1 min.

The mark [7] stands for this setting: p.o., all doses of 5 mg/kg and greater, FIG. 5.
[8] abbreviates: p.o., highest dose tested (50 mg/kg).

Structures are written as SMILES. Where two headings read alike, the source gives them in different places.

T1 sequence (Q9H3N8 whole entry): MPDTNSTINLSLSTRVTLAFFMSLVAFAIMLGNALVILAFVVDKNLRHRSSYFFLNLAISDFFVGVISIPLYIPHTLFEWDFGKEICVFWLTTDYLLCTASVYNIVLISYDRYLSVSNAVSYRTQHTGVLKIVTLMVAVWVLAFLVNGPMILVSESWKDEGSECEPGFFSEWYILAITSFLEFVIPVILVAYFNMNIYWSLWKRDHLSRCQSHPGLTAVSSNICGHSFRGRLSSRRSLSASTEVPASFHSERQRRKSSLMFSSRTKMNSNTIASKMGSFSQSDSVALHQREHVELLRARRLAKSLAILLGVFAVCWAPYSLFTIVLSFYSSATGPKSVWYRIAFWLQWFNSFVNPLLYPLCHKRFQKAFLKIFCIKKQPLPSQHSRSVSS

The inhibition is the change of the read-out against control, counted positive when it falls. For the compound `Cc1ccc2[nH]c(C(=O)NC3CC4CCC(C3)N4C)nc2c1` (stereo not shown) [5-Methyl-1H-benzoimidazole-2-carboxylic acid(8-methyl-8-aza-bicyclo[3.2.1]oct-3-yl)-amide], in test [1], the inhibition at 1 µM is 66% and the inhibition at 10 µM is 27%.

With `CN1CCN(C(=O)c2cc3sc(Cl)cc3[nH]2)CC1` [(2-Chloro-4H-thieno[3,2-b]pyrrol-5-yl)-(4-methyl-piperazin-1-yl)-methanone], the inhibition at 1 µM in test [1] is 92%.

Turning to `CN1CCN(C(=O)c2cc3cc(Cl)sc3[nH]2)CC1` [(2-Chloro-6H-thieno[2,3-b]pyrrol-5-yl)-(4-methyl-piperazin-1-yl)-methanone], in test [1], the inhibition at 1 µM was 103% and the inhibition at 10 µM was 106%.

Regarding `O=C(c1cc2cc(Cl)sc2[nH]1)N1CCN2CCCC2C1` (stereo not shown) [(2-Chloro-6H-thieno[2,3-b]pyrrol-5-yl)-(hexahydro-pyrrolo[1,2-a]pyrazin-2-yl)-methanone], in test [1], the inhibition at 1 µM was 0% and the inhibition at 10 µM came out at 0%.

Consider `CC1CN(C(=O)c2cc3scc(Br)c3[nH]2)CCN1` (stereo not shown) [(3-Bromo-4H-thieno[3,2-b]pyrrol-5-yl)-(3-methyl-piperazin-1-yl)-methanone], for which, in test [1], the inhibition at 1 µM stood at 0% and the inhibition at 10 µM turned out to be 0%.

`Cc1csc2cc(C(=O)N3CCN(C)CC3)[nH]c12` [(4-Methyl-piperazin-1-yl)-(3-methyl-4H-thieno[3,2-b]pyrrol-5-yl)-methanone]: the inhibition at 1 µM in test [1] stood at 60%.

In the case of `CN1CCN(C(=O)c2nc3cc(F)c(F)cc3[nH]2)CC1` [(5,6-Difluoro-1H-benzoimidazol-2-yl)-(4-methyl-piperazin-1-yl)-methanone], in test [1], the inhibition at 1 µM came to 72% and the inhibition at 10 µM was found to be 97%.

The Ki is a measure of affinity in units of concentration, obtained from inhibition or displacement. A lower Ki goes with a stronger hold on the target. Turning to `CN1CCN(C(=O)c2cc3cc(F)cc(F)c3[nH]2)CC1` [(5,7-Difluoro-1H-indol-2-yl)-(4-methyl-piperazin-1-yl)-methanone], the inhibition at 1 µM in test [1] is 100%. Moreover, in test [2], the affinity, expressed as Ki, was 19 nM.

For the compound `CN1CCN(C(=O)c2cc3cc(Br)ccc3[nH]2)CC1` [(5-Bromo-1H-indol-2-yl)-(4-methyl-piperazin-1-yl)-methanone], in test [3], affinity was put at a Ki of 8 nM.

Take `CN1CCN(C(=O)c2nc3cc(Cl)ccc3[nH]2)CC1` [(5-Chloro-1H-benzoimidazol-2-yl)-(4-methyl-piperazin-1-yl)-methanone]: in test [1], the inhibition at 1 µM worked out at 84% and the inhibition at 10 µM stood at 97%. Also, the “macrophages in BAL fluid” value in test [4] (p.o., 5 mg/kg, second experiment) is reported as “reduction”. Further, the “maximum reduction in the number of eosinophils” value in test [4] (p.o.) was determined as 50%. Moreover, in test [4] (setting [7]), the “number of eosinophils in BAL fluid” value is “significantly reduced” and the “total cell number in BAL fluid” value is recorded as “significantly reduced”. Besides, in test [4] (setting [8]), the “number of macrophages in BAL fluid” value is on record as “reduction” and the “number of neutrophils in BAL fluid” value was “increase”. The “number of lymphocytes in BAL fluid” value in test [4] (p.o., same doses which provided maximum reduction in eosinophils) is “significantly reduced”. For the same compound, the “airway hyper-responsiveness to methacholine (Penh)” value in test [5] was “reduced”.

Turning to `O=C(c1nc2cc(Cl)ccc2[nH]1)N1CCNCC1` [(5-Chloro-1H-benzoimidazol-2-yl)-piperazin-1-yl-methanone], in test [1], the inhibition at 1 µM came to 8% and the inhibition at 10 µM worked out at 101%.

For orientation: IC50 means the concentration at which inhibition is half-maximal. With `CN1CCN(C(=O)c2cc3cc(Cl)ccc3[nH]2)CC1` [(5-Chloro-1H-indol-2-yl)-(4-methyl-piperazin-1-yl)-methanone], in test [6] (20 mg/kg subcutaneous, 15 min prior to each histamine aerosol, FIG. 4), the “histamine-induced migration of mast cells into the sub-epithelial space” value was “blocked”. Moreover, in the test on human eosinophils, the IC50 is 270 nM. In test [4] (s.c., 60 and 100 mg/kg, FIG. 6), the “number of eosinophils in BAL fluid” value is “significantly reduced” and the “total cell number in BAL fluid” value is listed as “significantly reduced”. Further, the “maximum reduction in the number of eosinophils” value in test [4] (s.c.) is reported as 50%. Further, the “number of lymphocytes in BAL fluid” value in test [4] (s.c., same doses that provided reduction in eosinophils) is “significantly reduced”.

For the compound `O=C(c1cc2cc(Cl)ccc2[nH]1)N1CCNCC1` [(5-Chloro-1H-indol-2-yl)-piperazin-1-yl-methanone], in test [1], the inhibition at 1 µM was 99%. In addition, in test [2], affinity was put at a Ki of 10 nM.

With `Cc1cc(Cl)cc2cc(C(=O)N3CCN(C)CC3)[nH]c12` [(5-Chloro-7-methyl-1H-indol-2-yl)-(4-methyl-piperazin-1-yl)-methanone], in test [1], the inhibition at 1 µM was determined as 100% and the inhibition at 10 µM was 97%. In test [2], this compound came in with a Ki of 1 nM.

As for `CN1CCN(C(=O)c2cc3cccc(N)c3[nH]2)CC1` [(7-Amino-1H-indol-2-yl)-(4-methyl-piperazin-1-yl)-methanone], in test [1], the inhibition at 1 µM is 99%. The affinity in test [2] corresponds to a Ki of 7 nM.

`CN1CCN(C(=O)c2cc3cccc(Cl)c3[nH]2)CC1` [(7-Chloro-1H-indol-2-yl)-(4-methyl-piperazin-1-yl)-methanone]: the affinity in test [2] corresponds to a Ki of 23 nM.

In turn, `CN1CCN(C(=O)c2cc3cccc(O)c3[nH]2)CC1` [(7-Hydroxy-1H-indol-2-yl)-(4-methyl-piperazin-1-yl)-methanone] had a Ki in test [2] of 47 nM. Compared with the last compound, the Ki is about 2-fold higher.

In turn, `Cc1cccc2cc(C(=O)N3CCN(C)CC3)[nH]c12` [(7-Methyl-1H-indol-2-yl)-(4-methyl-piperazin-1-yl)-methanone] returned a Ki in test [2] of 6.6 nM.

With `NCCc1c[nH]cn1` [Histamine, reference compound], the “migrated mast cells in the lower chamber” value in test [1] (histamine in lower chamber (1.25-20 μM), FIG. 1) was “dose-dependent increase in migrated mast cells”. For the same compound, in test [6] (0.1 M histamine aerosol, 20 min on 2 consecutive days), the “migration of mast cells in the trachea” value was “induces a migration of mast cells into the sub-epithelial space”. In addition, the “shape change in eosinophils” value in the test on human eosinophils (histamine as stimulus) is on record as “induces a dose-dependent shape change”.

Turning to `S=C(NC1CCCCC1)N1CCC(c2cnc[nH]2)CC1` [Thioperamide], the IC50 in the test on human eosinophils is 1500 nM.

In test [2], `COc1cccc(-c2ccc3[nH]c(C(=O)N4CCN(C)CC4)cc3c2)c1` [[5-(3-Methoxy-phenyl)-1H-indol-2-yl]-(4-methyl-piperazin-1-yl)-methanone] registered a Ki of 145 nM.

`CN(C)CCOC(c1ccccc1)c1ccccc1` [diphenhydramine]: the “effect on histamine-induced eosinophil shape change” value in the test with human eosinophils is on record as “did not alter”.

As for `CNC(=C[N+](=O)[O-])NCCSCc1ccc(CN(C)C)o1` [ranatidine], the “effect on histamine-induced eosinophil shape change” value with human eosinophils was “did not alter”. The “Fold Change” value with human eosinophils (histamine 0 μM) turned out to be 1.00; with human eosinophils (histamine 0.01 μM), 1.04; in the test with human eosinophils (histamine 0.1 μM), 1.21; with human eosinophils (histamine 1 μM), 1.49; in the test with human eosinophils (histamine 10 μM), 1.64.

These data come from patent US20040127395A1 (priority 2002, published 2004).
